Positions of bridges follow the written chain, without caps; N, C: chain ends. No end group written: not given here.
Tests used:
Format in all cases: cell-based
[1] = test system: Acinetobacter baumannii (clinical isolate); assay: Biofilm prevention, crystal violet, 96-well plate; settings: added simultaneously, 24 h, 37° C.
Method: (§1) The peptides depicted in Table 1 (each with a cysteine attached to the N- and C-terminus of the peptides) were synthesized using solid-phase methods and were purified to 90% (Peptron, Inc.; Taejeon, South Korea). The peptides were dissolved in 20 μl dimethyl sulfoxide and diluted in double distilled water to a concentration of 10 mg/ml. Additional dilutions were performed in phosphate buffered saline (PBS).
(§2) The ability of these peptides to prevent microbial adhesion to a surface or detach microbial adhesion from a surface were measured against the following microbial strains: Pseudomonas aeruginosa (ATCC27853), Staphylococcus aureus (ATCC25923), Candida albicans (ATCC14053) and Acinetobacter baumannii (clinical isolate). […]
(§3) Biofilms of the foregoing microorganisms were grown in a 96-well found-bottom polystyrene plate. Specifically, 180 μl of overnight cultures were added to the wells with 20 μl of each peptide diluted in PBS, either simultaneously to measure prevention or after a period of time to measure detachment from 4 hours up to 24 hours post incubation. After 24 hours of incubation at 37° C., each well was washed with water and stained with 250 μl of crystal violet solution. The crystal violet solution was then removed by thoroughly washing the wells with water. To quantify the number of bacteria cells attached to the wells, the crystal violet was solubilized in 250 μl of 1% sodium dodecyl sulfate and the absorbance was measured at 595 nm.

[2] = test system: Candida albicans (ATCC14053); assay: Biofilm prevention, crystal violet, 96-well plate; settings: added simultaneously, 24 h, 37° C.
Method: as §1, §2, §3
(§4) The ability of these peptides to (1) prevent microbial adhesion to a surface and to (2) detach microbes already adhered to a surface were measured against the following microbial strains: Pseudomonas aeruginosa (ATCC27853), Staphylococcus aureus (ATCC25923), Candida albicans (ATCC14053) and/or Escherichia coli. The resulting percentage of prevention or detachment, relative to control wells in which the microbes was allowed to culture in the absence of peptides, are indicated in FIGS. 13 to 16.

[3] = test system: Pseudomonas aeruginosa (ATCC27853); assay: Biofilm prevention, crystal violet, 96-well plate; settings: added simultaneously, 24 h, 37° C.
Method: as §1, §2, §3, §4

[4] = test system: Staphylococcus aureus (ATCC25923); assay: Biofilm prevention, crystal violet, 96-well plate; settings: peptide 100 ng/ml, added simultaneously, 24 h, 37° C.
Method: as §1
(§5) The ability of these peptides to prevent microbial adhesion to a surface or detach microbial adhesion from a surface were measured against the following microbial strains: Pseudomonas aeruginosa (ATCC27853), Staphylococcus aureus (ATCC25923), Candida albicans (ATCC14053) and Acinetobacter baumannii (clinical isolate). Specifically, peptides diluted to concentrations of 100 ng/ml were incubated with the foregoing microbes for 24 hours.
as §3, §4

[5] = test system: Acinetobacter baumannii (clinical isolate); assay: Biofilm detachment, crystal violet, 96-well plate; settings: peptide 100 ng/ml, added after adhesion
Method: as §1, §5, §3

[6] = test system: Pseudomonas aeruginosa (ATCC27853); assay: Biofilm detachment, crystal violet, 96-well plate; settings: peptide 100 ng/ml, added after adhesion
Method: as §1, §5, §3, §4

[7] = test system: Staphylococcus aureus (ATCC25923); assay: Biofilm detachment, crystal violet, 96-well plate; settings: peptide 100 ng/ml, added after adhesion
Method: as §1, §5, §3, §4

[8] = test system: Candida albicans (ATCC14053); assay: Biofilm detachment, crystal violet, 96-well plate; settings: peptide 100 ng/ml, added after adhesion
Method: as §1, §5, §3, §4

[9] = test system: Pseudomonas aeruginosa (ATCC 27853); assay: Detachment of pre-formed biofilm from a well (Examples 1-7); settings: different concentrations
Method: A biofilm was created by incubating Pseudomonas aeruginosa (ATCC 27853) overnight in wells at 37° C., allowing the microorganism to attach to the well surface. Eqt2Z-cyc peptide [Custom Peptide Synthesis; Peptron, Korea] at different concentrations was subsequently added to the wells and allowed to incubate overnight. The P.a. control was Pseudomonas aeruginosa alone.
(§6) A biofilm was created by culturing Pseudomonas aeruginosa (ATCC 27853) for 2 hours in a well at 37° C. Eqt2Z-cyc peptide at different concentrations was subsequently added to the well and allowed to incubate overnight. The Abac10-cyc peptide served as a negative control. The P.a. control was Pseudomonas aeruginosa alone.
as §6, with “for 24 hours.” for “overnight.”, “alone. […] Staining was performed with crystal violet at OD 595 nm.” for “alone.”
A biofilm was created by culturing Pseudomonas aeruginosa (ATCC 27853) for 2 hours in a well at 37° C. grZ14s-nvCyc peptide [Custom Peptide Synthesis; Peptron, Korea] at different concentrations was subsequently added to the well and allowed to incubate for 24 hours. The Abac10-cyc peptide served as a negative control. The P.a. control was Pseudomonas aeruginosa alone. […] Staining was performed with crystal violet at OD 595 nm.
(§7) A biofilm was created by culturing Pseudomonas aeruginosa (ATCC 27853) for 24 hours in a well at 37° C. Eqt2Z-cyc peptide at different concentrations was subsequently added to the well and allowed to incubate for 24 hours. The Abac10-cyc peptide served as a negative control. The P.a. control was Pseudomonas aeruginosa alone. […] Staining was performed with crystal violet at OD 595 nm.
as §7, with “grZ14s-nvCyc” for “Eqt2Z-cyc”
A biofilm was created by culturing Pseudomonas aeruginosa (ATCC 27853) for 24 hours in a well at 37° C. PhyscoZ-Cyc peptide [Custom Peptide Synthesis; Peptron, Korea] at different concentrations was subsequently added to the well and allowed to incubate for 24 hours. The P.a. control was Pseudomonas aeruginosa alone. […] Staining was performed with crystal violet at OD 595 nm.

[10] = 24-hour biofilm, 24-hour peptide incubation, crystal violet OD 595 nm

CSAPYNFNFYSNWC (disulfide 1-14 (inferred)) [EchoZ-cyc]
Biofilm prevention (%) ([1]; peptide 100 ng/ml): 80%
Biofilm prevention (%) ([2]; peptide 10 ng/ml): 80%
Biofilm prevention (%) ([3]; peptide 100 ng/ml): 90%
Biofilm prevention (%) [4]: 85%
Detachment (%) (100 ng/ml) [5]: 60%
Detachment (%) (100 ng/ml) [6]: 65%
Detachment (%) (100 ng/ml) [7]: 35%

CSELSSFNFDWYNVC (disulfide 1-15 (inferred)) [CionaZ-S-cyc]
Biofilm prevention (%) ([1]; peptide 100 ng/ml): 52%
Biofilm prevention (%) ([2]; peptide 100 ng/ml): 68%
Biofilm prevention (%) ([3]; peptide 100 ng/ml): 75%
Biofilm prevention (%) [4]: 90%
Detachment (%) (100 ng/ml) [5]: 80%
Detachment (%) (100 ng/ml) [8]: 42%
Detachment (%) (100 ng/ml) [6]: 78%

CTVNSFDYDWYNVC (disulfide 1-14 (inferred)) [AnoliZ-cyc]
Biofilm prevention (%) ([1]; peptide 10 ng/ml): 92%
Biofilm prevention (%) ([2]; peptide 100 ng/ml): 55%
Biofilm prevention (%) ([3]; peptide 100 ng/ml): 95%
Biofilm prevention (%) [4]: 75%
Detachment (%) (100 ng/ml) [8]: 72%
Detachment (%) (100 ng/ml) [6]: 90%
Detachment (%) (100 ng/ml) [7]: 72%

CRVESFDFDWYNIC (disulfide 1-14 (inferred)) [SalmoZ-cyc]
Biofilm prevention (%) ([1]; peptide 100 ng/ml): 95%
Biofilm prevention (%) ([2]; peptide 100 ng/ml): 55%
Biofilm prevention (%) ([3]; peptide 10 ng/ml): 90%
Biofilm prevention (%) [4]: 80%
Detachment (%) (100 ng/ml) [8]: 73%
Detachment (%) (100 ng/ml) [6]: 80%
Detachment (%) (100 ng/ml) [7]: 75%

CSVPFDYNLYSNWC [SelagZ-cyc] (disulfide 1-14 (inferred))
Biofilm prevention (%) ([1]; peptide 100 ng/ml): 80%
Biofilm prevention (%) ([2]; peptide 10 ng/ml): 80%
Biofilm prevention (%) ([3]; peptide 100 ng/ml): 88%
Biofilm prevention (%) [4]: 88%
Detachment (%) (100 ng/ml) [5]: 50%
Detachment (%) (100 ng/ml) [6]: 67%
Detachment (%) (100 ng/ml) [7]: 35%

CKVNSFDYDWYNVC (disulfide 1-14 (inferred)) [MeleagZ-cyc]
Biofilm prevention (%) ([1]; peptide 100 ng/ml): 95%
Biofilm prevention (%) ([2]; peptide 100 ng/ml): 30%
Biofilm prevention (%) ([3]; peptide 100 ng/ml): 82%
Biofilm prevention (%) [4]: 73%
Detachment (%) (100 ng/ml) [8]: 62%
Detachment (%) (100 ng/ml) [6]: 65%
Detachment (%) (100 ng/ml) [7]: 80%

CRINSFDYDWYNVC (disulfide 1-14 (inferred)) [TetraoZ-cyc]
Biofilm prevention (%) ([1]; peptide 10 ng/ml): 70%
Biofilm prevention (%) ([2]; peptide 100 ng/ml): 25%
Biofilm prevention (%) ([3]; peptide 100 ng/ml): 45%
Biofilm prevention (%) [4]: 52%
Detachment (%) (100 ng/ml) [8]: 55%
Detachment (%) (100 ng/ml) [7]: 43%

CSRYSSFDYDWYNVC (disulfide 1-15 (inferred)) [XenoZ-S-cyc]
Biofilm prevention (%) ([1]; peptide 100 ng/ml): 95%
Biofilm prevention (%) ([2]; peptide 100 ng/ml): 75%
Biofilm prevention (%) ([3]; peptide 10 ng/ml): 57%
Biofilm prevention (%) [4]: 65%
Detachment (%) (100 ng/ml) [5]: 49%
Detachment (%) (100 ng/ml) [8]: 50%
Detachment (%) (100 ng/ml) [6]: 30%

CSVPYDYNWYSNWC (disulfide 1-14 (inferred)) [Eqt2Z-cyc]
microorganism detachment ([9]; 2-hour biofilm, 24-hour peptide incubation, crystal violet OD 595 nm): far greater microorganism detachment than in the P.a. control or negative control
microorganism detachment ([9]; 2-hour biofilm, overnight peptide incubation): far greater microorganism detachment than in the P.a. control or negative control
microorganism detachment [9, 10]: far greater microorganism detachment than in the P.a. control or negative control
microorganism detachment ([9]; overnight biofilm, overnight peptide incubation): far greater microorganism detachment than in the P.a. control

CTVHSFDYDWYNVC (disulfide 1-14 (inferred)) [CapraZ-cyc]
Biofilm prevention (%) ([1]; peptide 100 ng/ml): 90%
Biofilm prevention (%) ([2]; peptide 100 ng/ml): 25%
Biofilm prevention (%) ([3]; peptide 100 ng/ml): 68%
Biofilm prevention (%) [4]: 42%
Detachment (%) (100 ng/ml) [8]: 60%
Detachment (%) (100 ng/ml) [6]: 65%
Detachment (%) (100 ng/ml) [7]: 55%

CNVHSFDYDWYNVC (disulfide 1-14 (inferred)) [CanisZ-cyc]
Biofilm prevention (%) ([1]; peptide 10 ng/ml): 60%
Biofilm prevention (%) ([2]; peptide 100 ng/ml): 80%
Biofilm prevention (%) ([3]; peptide 100 ng/ml): 95%
Biofilm prevention (%) [4]: 75%
Detachment (%) (100 ng/ml) [5]: 73%
Detachment (%) (100 ng/ml) [8]: 45%
Detachment (%) (100 ng/ml) [6]: 72%

CRVESFNYDWYNVC (disulfide 1-14 (inferred)) [NilotiZ-cyc]
Biofilm prevention (%) ([1]; peptide 100 ng/ml): 87%
Biofilm prevention (%) ([2]; peptide 100 ng/ml): 30%
Biofilm prevention (%) ([3]; peptide 100 ng/ml): 90%
Biofilm prevention (%) [4]: 63%
Detachment (%) (100 ng/ml) [8]: 65%
Detachment (%) (100 ng/ml) [6]: 40%
Detachment (%) (100 ng/ml) [7]: 65%

CSVPFDYNLYSNWC [PhyscoZ-cyc] (also: cyclised)
Biofilm prevention (%) ([2]; peptide 10 ng/ml): 62%
Biofilm prevention (%) ([3]; peptide 100 ng/ml): 95%
Biofilm prevention (%) [4]: 65%
Detachment (%) (100 ng/ml) [5]: 50%
microorganism detachment [9, 10]: far greater microorganism detachment than in the P.a. control
Detachment (%) (100 ng/ml) [6]: 75%
Detachment (%) (100 ng/ml) [7]: 70%

From US9700058B2, “Dispersion and detachment of cell aggregates” (priority 2011, dated 2017)
